Measured values as given in US7091025B2, “Malathion carboxylesterase” (priority 1995, dated 2006).
Like-named read-outs stand apart in the source and are kept apart here.

Assays:
[1] = system: whole fly homogenates of L. cuprina strains; assay: Chlorfenvinphos hydrolysis by whole fly homogenates; assay type: biochemical
Method: Enzyme samples were diluted in 0.1M imidazole-HCl buffer pH 7.0 (“imidazole buffer”) to a final volume of 50 μl. Reactions were started by the addition 0.5 μl of (^14C-ethyl)-chlorfenvinphos (CVP, 306.5 MBq/mmole, Internationale Isotope Munchen) from a 7.5 mM stock solution in ethanol. The reaction was incubated at 30° C. and stopped by the addition of 300 μl dichloromethane and 150 μl of water followed by vigorous vortex mixing. The reactions were centrifuged to separate phases and 150 μl of the upper, aqueous phase was taken for scintillation counting to determine the amount of ^14C-diethylphosphate produced by hydrolysis of CVP. Incubations with boiled enzyme were also performed to control for non-enzymic hydrolysis of CVP.
Whole fly homogenates of malathion resistant (strains RM-8, 60NE 1.1, 4.2, Beverly 6.2, Hampton Hill 6.1, Hampton Hill 6.2, Woodside 5.2, Rop Rmal 1, M22.2 6.3, M27.1 4.1), diazinon resistant (Gunning 107, Inverell 22, Q4, RM2.6, Llandillo 103, Sunbury 5.2) and susceptible (LBB 101, Llandillo 104, LS2) strains of L. cuprina were tested for esterase-mediated hydrolysis of CVP, a general OP (ie not a malathion-type OP). All 10 malathion resistant strains had greater CVP hydrolytic activities (1.5–3.0 pmol/min/mg) than the 3 susceptible strains (0.5–1.0 pmol/min/mg, but less activity than the 6 diazinon resistant strains (8.2–30.0 pmol/min/mg).

M. domestica = conditions: cited from earlier work; for Resistance factor of M. domestica (in parentheses), Dz/para resistance type / Resistance factor of M. domestica (in parentheses), malathion resistance type: Bell and Busvine 1967, Townsend and Busvine 1969
adult female L. cuprina = assay type: in vivo; conditions: for RF (Dz/para R): ratio of the LD50 of Llandillo 103 with the LD50 of LS2 / RF (Mal R): ratio of the LD50 of Woodside 5.2 with the LD50 of LS2: L. cuprina, NS = not significantly different from unity; for LD50 LS2 (OP Susceptible), with 95% confidence limits: strain LS2, topical in dioctylphthalate; for LD50 LS2 (OP Susceptible), with 95% confidence limits / LD50 Llandillo 103 (Dz/para Resistant), with 95% confidence limits / LD50 Woodside 5.2 (Mal Resistant), with 95% confidence limits: mortality at 24 hours; for LD50 Llandillo 103 (Dz/para Resistant), with 95% confidence limits: strain Llandillo 103, topical; for LD50 Woodside 5.2 (Mal Resistant), with 95% confidence limits: strain Woodside 5.2, topical
Source text: (§1) The following organophosphorus compounds were used: diazinon (O,O-diethyl O-2-isopropyl-6-methylpyrimidin-4-yl phosphorothioate, 91%, Mallinckrodt), parathion-methyl (O,O-dimethyl O-4-nitrophenyl phosphorothioate, 97.0%, Bayer), parathion (O,O-diethyl O-4-nitrophenyl phosphorothioate, 99%, Pestanal grade, Riedel-de-Haën), fenthion (O,O-dimethyl O-[3-methyl-4-(methylthio)phenyl]phosphorothioate, 98.8%, Bayer), fenthion-ethyl (O,O-diethyl O-[3-methyl-4-(methylthio)phenyl] phosphorothioate, a gift from Dr. G. Levot), dichlorvos (2,2-dichlorovinyl dimethyl phosphate, 99%, Chem Service), diethyl-dichlorvos (2,2-dichlorovinyl diethyl phosphate, a gift from Dr. J. Desmarchelier), di-isopropyl-dichlorvos (2,2-dichlorovinyl di-isopropyl phosphate, a gift from Dr. J. Desmarchelier), malathion (S-1,2-bis(ethoxycarbonyl)ethyl O,O-dimethyl phosphorodithioate, technical grade, Nufarm), isopropyl malathion (S-1,2-bis(ethoxycarbonyl)ethyl O,O-di-isopropyl phosphorodithioate, a gift from Dr. J. Desmarchelier).
(§2) The toxicity of OPs in adult female L. cuprina was determined 3 or 4 days post-eclosion by application of OPs to the scutellum in 0.7 μl dioctylphthalate (Busvine, J. R., Bell, J. D. and Guneidy, A. M., Bulletin of Entomological Research 54: 589, 1963;; Townsend, M. G. and Busvine, J. R., Entomology Experimental and Applied 12: 243, 1969). Each OP was applied to at least 20 flies at each of at least 5 different concentrations, spanning the dose causing 50% mortality (LD50). Control groups were treated with solvent but no OP. Mortality was determined 24 hours later. Data were fitted to the probit curve using the Probit Or LOgit (POLO-PC) computer program (LeOra Software, 1987).

[2] = system: adult L. cuprina, Woodside 5.2 strain (Mal Resistant); assay type: in vivo, Lucilia cuprina
Source text: as §1, §2
(§3) LD50s of 10 OPs were determined for the Woodside 5.2 strain (homozygous for a malathion resistance allele of LcαE7) and the Llandillo 103 strain (homozygous for a parathion/diazinon resistance allele of LcαE7). LD50s were also determined for the OP susceptible LS2 strain in order to calculate resistance factors (Table 8).

[3] = system: adult L. cuprina, Llandillo 103 strain (Dz/para Resistant); assay: toxicity of OPs in adult female L. cuprina, Llandillo 103 strain; assay type: in vivo, Lucilia cuprina
Source text: as §1, §2, §3

CCCC(=O)Oc1cccc2ccccc12 = assay: α-naphthyl butyrate hydrolysis, expressed malathion susceptible LcαE7 product; assay type: biochemical, Lucilia cuprina; conditions: other: α-NB 6-200 μM, 25° C., pH 8.0
Method: (§4) The in vitro expression of the OP susceptible allele of LcαE7 (clone Lc743) is described in patent application PCT/AU 95/00016 (“Enzyme based bioremediation”).
(§5) The initial rates of reactions between cell extracts containing the expressed products of the malathion resistant and susceptible LcαE7 alleles and α-naphthyl acetate (α-NA) were determined at 25° C. using a recording spectrophotometer and the method of Mastrapaolo and Yourno (Analytical Biochemistry 115: 188, 1981). 6–200 μM α-NA dissolved in 10 μl of 2-methoxyethanol was added to 0.1 M Tris-HCl pH 8.0 (980 μl) in a quartz cuvette. α-Naphthyl acetate is slowly hydrolysed in water so a background rate was recorded before starting the enzymic reaction by the addition of 10 μl of diluted cell extract. Control reactions were performed with extracts of both uninfected cells and Bacpac 6 infected cells.
As described above for α-NA hydrolysis except that 6–200 μM α-naphthyl butyrate (α-NB) was used instead of α-NA.
(§6) Km and Vmax were calculated for both enzymes. Kcat was then calculated from the Vmax and the molarity of the LcαE7 products in their respective cell extracts (determined above).

CC(=O)Oc1cccc2ccccc12 = assay: α-naphthyl acetate hydrolysis, expressed malathion susceptible LcαE7 product; assay type: biochemical, Lucilia cuprina; conditions: other: α-NA 6-200 μM, 25° C., pH 8.0
Method: as §4, §5, §6

Molecule	Resistance factor of M. domestica (in parentheses), Dz/para resistance type (M. domestica)	Resistance factor of M. domestica (in parentheses), malathion resistance type (M. domestica)	RF (Dz/para R): ratio of the LD50 of Llandillo 103 with the LD50 of LS2 (adult female L. cuprina)	RF (Mal R): ratio of the LD50 of Woodside 5.2 with the LD50 of LS2 (adult female L. cuprina)	LD50 LS2 (OP Susceptible), with 95% confidence limits (adult female L. cuprina)	LD50 Llandillo 103 (Dz/para Resistant), with 95% confidence limits (adult female L. cuprina)	LD50 Woodside 5.2 (Mal Resistant), with 95% confidence limits (adult female L. cuprina)	also measured
CCOP(=O)(OCC)O/C(=C\Cl)c1ccc(Cl)cc1Cl [CVP, chlorfenvinphos]								CVP hydrolytic activity ([1]; whole fly homogenates of 3 susceptible strains): 0.5 to 1.0 pmol/min/mg; CVP hydrolytic activity ([1]; whole fly homogenates of 6 diazinon resistant strains): 8.2 to 30.0 pmol/min/mg; CVP hydrolytic activity ([1]; whole fly homogenates of 10 malathion resistant strains): 1.5 to 3.0 pmol/min/mg
CCOP(=S)(OCC)Oc1cc(C)nc(C(C)C)n1 [Diazinon, O,O-diethyl O-2-isopropyl-6-methylpyrimidin-4-yl phosphorothioate]	20	2	10	5	57 (40–79), ng/fly	550 (490–630), ng/fly	270 (240–300), ng/fly	
COP(=O)(OC)OC=C(Cl)Cl [Dichlorvos, 2,2-dichlorovinyl dimethyl phosphate]	3	6	4	7	41 (35–51), ng/fly	150 (95–190), ng/fly	270 (210–340) ng/fly	resistance factor towards dimethyl OP vs its diethyl analogue ([2]; Woodside 5.2): about two- to five-fold greater resistance factors
CCOP(=O)(OC=C(Cl)Cl)OCC [Ethyl Dichlorvos, 2,2-dichlorovinyl diethyl phosphate]			7	3	360 (300–420), ng/fly	2370 (2320–2410), ng/fly	1100 (700–1500) ng/fly	resistance factor towards diethyl OP vs its dimethyl analogue [3]: about two-fold greater resistance factors
COP(=S)(OC)Oc1ccc(SC)c(C)c1 [Fenthion, O,O-dimethyl O-[3-methyl-4-(methylthio)phenyl]phosphorothioate]	3 (3)	7	3 (3)	5	61 (42–87), ng/fly	210 (180–240) ng/fly	320 (210–490) ng/fly	resistance factor towards dimethyl OP vs its diethyl analogue ([2]; in vivo): about two- to five-fold greater resistance factors
CCOP(=S)(OCC)Oc1ccc(SC)c(C)c1 [Fenthion-ethyl, O,O-diethyl O-[3-methyl-4-(methylthio)phenyl] phosphorothioate]			2	2	330 (290–370) ng/fly	690 (570–830) ng/fly	730 (660–870) ng/fly	resistance factor towards diethyl OP vs its dimethyl analogue [3]: no significant difference
CC(C)OP(=O)(OC=C(Cl)Cl)OC(C)C [Isopropyl Dichlorvos, 2,2-dichlorovinyl di-isopropyl phosphate]				3	3500 (2200–4800), ng/fly	4600 (3400–5900) ng/fly	10200 (8800–12000) ng/fly	
CCOC(=O)CC(SP(=S)(OC(C)C)OC(C)C)C(=O)OCC (stereo not drawn) [Isopropyl Malathion, S-1,2-bis(ethoxycarbonyl)ethyl O,O-di-isopropyl phosphorodithioate]		4		1.8	3600 (2700–4900), ng/fly	4900 (3700–6200), ng/fly	6400 (5900–7100), ng/fly	
CCOC(=O)CC(SP(=S)(OC)OC)C(=O)OCC (stereo not drawn) [Malathion, S-1,2-bis(ethoxycarbonyl)ethyl O,O-dimethyl phosphorodithioate]	2	157		> 130	550 (480–610), ng/fly	490 (360–600) ng/fly	4 ng/fly	resistance to malathion of malathion resistant M. domestica strains (M. domestica; literature): > 100 fold; fold greater doses survived by flies with malathion resistance alleles of αE7 (adult female L. cuprina; in vivo): more than 100 fold
CCOP(=S)(OCC)Oc1ccc([N+](=O)[O-])cc1 [Parathion, O,O-diethyl O-4-nitrophenyl phosphorothioate]	35	3	20	6	52 (48–55), ng/fly	1050 (890–1280), ng/fly	290 (270–310), ng/fly	resistance factor towards diethyl OP vs its dimethyl analogue [3]: about two-fold greater resistance factors
COP(=S)(OC)Oc1ccc([N+](=O)[O-])cc1 [Parathion-methyl, O,O-dimethyl O-4-nitrophenyl phosphorothioate]	9	10	12	27	16 (11–20), ng/fly	185 (141–244), ng/fly	430 (390–490), ng/fly	resistance factor towards dimethyl OP vs its diethyl analogue ([2]; Woodside 5.2): about two- to five-fold greater resistance factors
Lucilia cuprina LcαE7 (esterase E3) gene product, malathion susceptible allele (strain LS2; clone Lc743), Trp at position 251 (Lucilia cuprina)								Km (CCCC(=O)Oc1cccc2ccccc12): 20 ± 5 µM; kcat (CCCC(=O)Oc1cccc2ccccc12): 300 ± 33.3 s⁻¹; Km (CC(=O)Oc1cccc2ccccc12): 70 ± 5 µM; kcat (CC(=O)Oc1cccc2ccccc12): 183 ± 5 s⁻¹
